Laboratory results published in ChEMBL document CHEMBL1158587, “Chloramultiols A-F, lindenane-type sesquiterpenoid dimers from Chloranthus multistachys” (J Nat Prod, 2010).

Key:
Assay type in all cases: functional, cell-based
[1] = tested on: A549; assay: Cytotoxicity against human A549 cells by MTT assay
[2] = tested on: HL-60; assay: Cytotoxicity against human HL60 cells by MTT assay
[3] = tested on: PANC-1; assay: Cytotoxicity against human PANC1 cells by MTT assay
[4] = tested on: SMMC-7721; assay: Cytotoxicity against human SMMC7721 cells by MTT assay
[5] = tested on: SK-BR-3; assay: Cytotoxicity against human SKBR3 cells by MTT assay

Measured: IC50

C/C=C(\C)C(=O)OC[C@]1(O)[C@H]2C[C@H]2[C@]2(C)[C@@H]3C[C@@]4(O)C5=C(C6=C(C)C(=O)O[C@]6(OC)[C@H](O)[C@@]5(C)[C@@H]5C[C@@H]54)[C@@]34OC(=O)C(CO)=C4C[C@@H]12 [CHLORAMULTIOL C]
> 10 µM: all assays above

COC(=O)[C@]1(C)CC2=C3C=C(C(=O)[C@H](O)[C@@]3(C)[C@@H]3C[C@H]23)[C@](C)(C(=O)OC)CC2=C3C=C1C(=O)[C@H](O)[C@@]3(C)[C@@H]1C[C@H]21 [Cycloshizukaol A]
> 10 µM: all assays above

CC(=O)OC[C@@H]1[C@H]2C[C@H]2[C@]2(C)[C@@H]3C[C@@]4(O)C5=C(C6=C(C)C(=O)O[C@]6(O)[C@H](O)[C@@]5(C)[C@@H]5C[C@@H]54)[C@@]34OC(=O)C(CO)=C4C[C@@H]12 [CHLORAMULTIOL E]
> 10 µM: all assays above

C/C=C(\C)C(=O)OC[C@]1(O)[C@H]2C[C@H]2[C@]2(C)[C@@H]3C[C@@]4(O)C5=C(C6=C(C)C(=O)O[C@]6(O)C(=O)[C@@]5(C)[C@@H]5C[C@@H]54)[C@@]34OC(=O)C(CO)=C4C[C@@H]12 [CHLORAMULTIOL D]
> 10 µM: all assays above

CC1=C2C3=C4[C@@](C)(C(=O)[C@@]2(O)OC1=O)[C@@H]1C[C@@H]1[C@@]4(O)C[C@@H]1[C@]32OC(=O)C3=C2C[C@H]2[C@](O)(COC(=O)/C(C)=C/COC(=O)CCC(=O)OC3)[C@H]3C[C@H]3[C@]12C [SPICACHLORANTIN B]
> 10 µM: all assays above

CO[C@]12OC(=O)C(C)=C1C1=C3C(=C[C@@H]4[C@]15OC(=O)C1=C5C[C@H]5[C@](O)(COC(=O)/C(C)=C/COC(=O)CCC(=O)OC1)[C@H]1C[C@H]1[C@]45C)[C@H]1C[C@H]1[C@]3(C)[C@H]2O [CHLORAMULTIOL F]
> 10 µM: all assays above

CC1=C2C3=C4[C@](C)([C@@H]5C[C@@H]5[C@@]4(O)C[C@@H]4[C@]35OC(=O)C(CO)=C5C[C@H]3[C@](O)(CO)[C@H]5C[C@H]5[C@]43C)[C@@H](O)[C@@]2(O)OC1=O [CHLORAMULTIOL B]
> 10 µM: all assays above

C/C=C(\C)C(=O)OC[C@]1(O)[C@H]2C[C@H]2[C@]2(C)[C@@H]3C[C@@]4(O)C5=C(C6=C(C)C(=O)O[C@]6(O)[C@H](O)[C@@]5(C)[C@@H]5C[C@@H]54)[C@@]34OC(=O)C(CO)=C4C[C@@H]12 [CHLORAMULTILIDE D]
> 10 µM: all assays above

CC1=C2C3=C4[C@](C)([C@@H]5C[C@@H]5[C@@]4(O)C[C@@H]4[C@]35OC(=O)C3=C5C[C@H]5[C@](O)(COC(=O)/C(C)=C/COC(=O)CCC(=O)OC3)[C@H]3C[C@H]3[C@]45C)[C@@H](O)[C@@]2(O)OC1=O [CHLORAMULTILIDE C]
> 10 µM: all assays above

COC(=O)/C(C)=C1/C(=O)[C@H](O)[C@]2(C)C3=C1[C@]14OC(=O)C(COC(C)=O)=C1C[C@H]1C[C@H]5C[C@H]5[C@]1(C)[C@@H]4C[C@]3(O)[C@H]1C[C@H]12 [SHIZUKAOL D]
> 10 µM: all assays above

COC(=O)/C(C)=C1\C(=O)[C@H](O)[C@]2(C)C3=C([C@H]4C[C@H]42)[C@H](O)[C@@H]2[C@]4(OC(=O)C5=C4C[C@H]4[C@](O)(COC(=O)/C(C)=C/COC(=O)CCC(=O)OC5)[C@H]5C[C@H]5[C@]24C)[C@H]31 [CHLORAMULTIOL A]
> 10 µM: all assays above

C/C=C(\C)C(=O)OCC1=C2C[C@H]3[C@H](O)[C@H]4C[C@H]4[C@]3(C)[C@@H]3C[C@@]4(O)C5=C(/C(=C(/C)C(=O)OC)C(=O)[C@H](O)[C@@]5(C)[C@@H]5C[C@@H]54)[C@]23OC1=O [SHIZUKAOL C]
> 10 µM: all assays above
